US20050075375A1 (priority 2003, published 2005)
pEC50: −log10 of the molar value.

Test system: monocistronic NK5.1 HCV replicon in Huh7 cells
Experiment: HCV replicon assay, monocistronic replicon cell line
Type: cell-based, hepatitis C virus
Settings: Hepatitis C virus, Huh-7, 72 h; Table 1; monocistronic replicon in Huh7 cells, 3 days incubation, HCV RNA/GAPDH RNA by TaqMan RT-PCR; read-out: Mono EC50 Median
From the text: HCV Replicon Assays (Replicon EC50 (μM))
HCV replication can be measured by a replicon assay such as described by Vrolijk et al, J. Virol. Methods 110:201(2003), which is hereby incorporated in its entirety by reference. The method was implemented as follows.
Monocistronic Replicon Cell Line:
Human hepatocyte Huh7 cells containing the monocistronic NK5.1 replicon were obtained from Ralf Bartenschlager at the University of Mainz, Germany. These cells were maintained under hygromycin selection and passaged when 80-90% confluent.
This cell line contains an autonomously replicating RNA element (replicon) incorporating the non-structural HCV elements necessary for replication, and upon which the survival of the replicon in the cell depends. This replicon contains a single internal ribosome entry site (HCV IRES). Inhibition of any of the critical HCV finctions by a compound leads to loss of the replicon as measured by HCV replicon RNA copy number reduction. The amount of HCV RNA present following a standard incubation with a compound is a measure of the anti-HCV activity of the compound. The assay was conducted by preparing sufficient 96-well plates containing these cells, wherein cells are seeded at 6000 cells/well in a 96-well plate, in 200 μl of final media volume. Cells were then incubated for 24 hours at 37 C., 5% CO2, and 95% humidity before compound was added. Six point half-log concentration response assays were conducted to determine potency/EC50 of Formula I compounds to inhibit HCV replicon replication. The final percent DMSO acceptable in this assay system is 0.6%. Compounds were diluted in media in an appropriate format and 5 μl of each drug dilution is added to each well. Cells were then incubated with compounds for 3 days at 37 C., 5% CO2, and 95% humidity. Following the three day incubation period, plates were washed twice with phosphate buffered saline to remove media and cells were lysed with Qiagen extraction buffer. RNA was extracted and isolated with the Qiagen RNAeasy kit according to the manufacturer's protocol (Qiagen). TaqMan One-Step RT-PCR was used in conjunction with an ABI 7700 Sequence Detector (Applied Biosystems) for the quantitation and analysis of HCV replicon RNA copy number. A GAPDH probe was used for internal normalization. The ratio of HCV RNA to cellular GAPDH RNA was determined and compared to the DMSO-only treated control, and the ratio of HCV RNA/GAPDH RNA was used for an EC50 determination and as a measure of specificity for inhibition of the HCV replicon.

Q: COc1ccc(-c2ccn(-c3ncc(C(F)(F)F)cc3Cl)n2)c(F)c1 [Compound 47, 3-Chloro-2-[3-(2-fluoro-4-methoxy-phenyl)-pyrazol-1-yl]-5-trifluoromethyl-pyridine] was tested. Which pEC50 did it give?
A: The pEC50 was 5.22.

Q: COc1ccc(-c2ccnn2-c2ncc(C(F)(F)F)cc2Cl)c(F)c1 [Compound 48, 3-Chloro-2-[5-(2-fluoro-4-methoxy-phenyl)-pyrazol-1-yl]-5-trifluoromethyl-pyridine] was tested. Which pEC50 did it give?
A: The pEC50 was 4.82.

Q: With COc1ccc(-c2ccn(-c3c(Cl)cncc3Cl)n2)c(F)c1 [Compound 49, 3,5-Dichloro-4-[3-(2-fluoro-4-methoxy-phenyl)-pyrazol-1-yl]-pyridine] as the molecule, how does the pEC50 read?
A: The pEC50 was under 4.49.

Q: With COc1ccc(-c2ccnn2-c2c(Cl)cncc2Cl)c(F)c1 [Compound 50, 3,5-Dichloro-4-[5-(2-fluoro-4-methoxy-phenyl)-pyrazol-1-yl]-pyridine] as the molecule, how does the pEC50 read?
A: The pEC50 was 5.24.

Q: COc1ccc(-c2ccn(-c3ncccc3C(F)(F)F)n2)c(F)c1 [Compound 51, 2-[3-(2-Fluoro-4-methoxy-phenyl)-pyrazol-1-yl]-3-trifluoromethyl-pyridine] was tested. Which pEC50 did it give?
A: Its pEC50 is 4.70.

Q: With COc1ccc(-c2ccnn2-c2ncccc2C(F)(F)F)c(F)c1 [Compound 52, 2-[5-(2-Fluoro-4-methoxy-phenyl)-pyrazol-1-yl]-3-trifluoromethyl-pyridine] as the molecule, how does the pEC50 read?
A: The pEC50 was 5.68.

Q: With COc1ccc(-c2ccn(-c3ccccn3)n2)c(F)c1 [Compound 53, 2-[3-(2-Fluoro-4-methoxy-phenyl)-pyrazol-1-yl]-pyridine] as the molecule, how does the pEC50 read?
A: The pEC50 was under 4.49.

Q: How did the pEC50 turn out when COc1ccc(-c2ccnn2-c2ccccn2)c(F)c1 [Compound 54, 2-[5-(2-Fluoro-4-methoxy-phenyl)-pyrazol-1-yl]-pyridine] was run?
A: The pEC50 was 5.66.

Q: How did the pEC50 turn out when CCCNC(=O)c1cc(-c2ccc(OC)cc2)nn1-c1ccc(Cl)cc1 [Compound 55, 2-(4-Chloro-phenyl)-5-(4-methoxy-phenyl)-2H-pyrazole-3-carboxylic acid propylamide] was run?
A: The pEC50 was 4.74.

Q: How did the pEC50 turn out when CCOC(=O)c1cc(-c2ccc(OC)cc2)nn1-c1ncccc1C(F)(F)F [Compound 56, 5-(4-Methoxy-phenyl)-2-(3-trifluoromethyl-pyridin-2-yl)-2H-pyrazole-3-carboxylic acid ethyl ester] was run?
A: Its pEC50 is under 4.49.

Q: With CCOC(=O)c1cc(-c2ccc(OC)cc2)n(-c2ncccc2C(F)(F)F)n1 [Compound 57, 5-(4-Methoxy-phenyl)-1-(3-trifluoromethyl-pyridin-2-yl)-1H-pyrazole-3-carboxylic acid ethyl ester] as the molecule, how does the pEC50 read?
A: Its pEC50 is under 4.49.

Q: With COc1ccc(-c2cc(C(=O)O)nn2-c2ncccc2C(F)(F)F)cc1 [Compound 58] as the molecule, how does the pEC50 read?
A: Its pEC50 is under 4.49.

Q: CCCNC(=O)c1cc(-c2ccc(OC)cc2)nn1-c1ncccc1C(F)(F)F [Compound 59, 5-(4-Methoxy-phenyl)-2-(3-trifluoromethyl-pyridin-2-yl)-2H-pyrazole-3-carboxylic acid propylamide] was tested. Which pEC50 did it give?
A: The pEC50 was under 4.49.

Q: How did the pEC50 turn out when CCOC(=O)c1cc(-c2ccc(OC)cc2)nn1-c1ncccc1[N+](=O)[O-] [Compound 60, 5-(4-Methoxy-phenyl)-2-(3-nitro-pyridin-2-yl)-2H-pyrazole-3-carboxylic acid ethyl ester] was run?
A: Its pEC50 is under 4.49.

Q: With CCOC(=O)c1cc(-c2ccc(OC)cc2)n(-c2ncccc2[N+](=O)[O-])n1 [Compound 61, 5-(4-Methoxy-phenyl)-1-(3-nitro-pyridin-2-yl)-1H-pyrazole-3-carboxylic acid ethyl ester] as the molecule, how does the pEC50 read?
A: The pEC50 was 4.72.

Q: CCCNC(=O)c1cc(-c2ccc(OC)cc2)nn1-c1ccccn1 [Compound 62] was tested. Which pEC50 did it give?
A: Its pEC50 is under 4.49.

Q: With COc1ccc(-c2cc(C(=O)O)n(-c3ccccn3)n2)cc1 [Compound 63] as the molecule, how does the pEC50 read?
A: The pEC50 was under 4.49.

Q: CCOC(=O)c1cc(-c2ccc3ccccc3c2)nn1-c1ccccn1 [Compound 65, 5-Naphthalen-2-yl-2-pyridin-2-yl-2H-pyrazole-3-carboxylic acid ethyl ester] was tested. Which pEC50 did it give?
A: Its pEC50 is under 4.49.

Q: How did the pEC50 turn out when CCOC(=O)c1cc(-c2ccc3ccccc3c2)n(-c2ccccn2)n1 [Compound 66, 5-Naphthalen-2-yl-1-pyridin-2-yl-1H-pyrazole-3-carboxylic acid ethyl ester] was run?
A: Its pEC50 is 4.52.

Q: CCOC(=O)c1cc(-c2ccc3ccccc3c2)n(-c2ncccc2C(F)(F)F)n1 [Compound 67, 5-Naphthalen-2-yl-1-(3-trifluoromethyl-pyridin-2-yl)-1H-pyrazole-3-carboxylic acid ethyl ester] was tested. Which pEC50 did it give?
A: Its pEC50 is 4.66.

Q: With CCOC(=O)c1cc(-c2ccc3ccccc3c2)nn1-c1ncccc1C(F)(F)F [Compound 68] as the molecule, how does the pEC50 read?
A: Its pEC50 is 4.92.

Q: With CCOC(=O)c1cc(-c2ccc3ccccc3c2)n(-c2ncccc2[N+](=O)[O-])n1 [Compound 69] as the molecule, how does the pEC50 read?
A: The pEC50 was 4.62.

Q: With CCCNC(=O)c1cc(-c2ccc(OC)cc2)nn1-c1ncccc1[N+](=O)[O-] [Compound 70, 5-(4-Methoxy-phenyl)-2-(3-nitro-pyridin-2-yl)-2H-pyrazole-3-carboxylic acid propylamide] as the molecule, how does the pEC50 read?
A: Its pEC50 is under 4.49.

Q: CCCNC(=O)c1cc(-c2ccc3ccccc3c2)nn1-c1ccccn1 [Compound 71, 5-Naphthalen-2-yl-2-pyridin-2-yl-2H-pyrazole-3-carboxylic acid propylamide] was tested. Which pEC50 did it give?
A: The pEC50 was 4.68.

Q: CCCNC(=O)c1cc(-c2ccc3ccccc3c2)n(-c2ccccn2)n1 [Compound 72, 5-Naphthalen-2-yl-1-pyridin-2-yl-1H-pyrazole-3-carboxylic acid propylamide] was tested. Which pEC50 did it give?
A: Its pEC50 is under 4.49.

Q: How did the pEC50 turn out when O=C(O)c1cc(-c2ccc3ccccc3c2)nn1-c1ccccn1 [Compound 73, 5-Naphthalen-2-yl-2-pyridin-2-yl-2H-pyrazole-3-carboxylic acid] was run?
A: The pEC50 was under 4.49.

Q: With O=C(O)c1cc(-c2ccc3ccccc3c2)n(-c2ccccn2)n1 [Compound 74, 5-Naphthalen-2-yl-1-pyridin-2-yl-1H-pyrazole-3-carboxylic acid] as the molecule, how does the pEC50 read?
A: Its pEC50 is under 4.49.

Q: O=C(O)c1cc(-c2ccc3ccccc3c2)n(-c2ncccc2[N+](=O)[O-])n1 [Compound 75] was tested. Which pEC50 did it give?
A: Its pEC50 is under 4.49.

Q: How did the pEC50 turn out when CCCNC(=O)c1cc(-c2ccc3ccccc3c2)nn1-c1ncccc1C(F)(F)F [Compound 76, 5-Naphthalen-2-yl-2-(3-trifluoromethyl-pyridin-2-yl)-2H-pyrazole-3-carboxylic acid propylamide] was run?
A: The pEC50 was 5.03.

Q: How did the pEC50 turn out when CCCNC(=O)c1cc(-c2ccc3ccccc3c2)n(-c2ncccc2C(F)(F)F)n1 [Compound 77, 5-Naphthalen-2-yl-1-(3-trifluoromethyl-pyridin-2-yl)-1H-pyrazole-3-carboxylic acid propylamide] was run?
A: The pEC50 was under 4.49.

Q: How did the pEC50 turn out when O=C(O)c1cc(-c2ccc3ccccc3c2)nn1-c1ncccc1C(F)(F)F [Compound 78, 5-Naphthalen-2-yl-2-(3-trifluoromethyl-pyridin-2-yl)-2H-pyrazole-3-carboxylic acid] was run?
A: The pEC50 was under 4.49.

Q: How did the pEC50 turn out when O=C(O)c1cc(-c2ccc3ccccc3c2)n(-c2ncccc2C(F)(F)F)n1 [Compound 79, 5-Naphthalen-2-yl-1-(3-trifluoromethyl-pyridin-2-yl)-1H-pyrazole-3-carboxylic acid] was run?
A: Its pEC50 is under 4.49.

Q: COc1ccc(OCc2ccccc2)c(-c2ccn(-c3ncccc3C(F)(F)F)n2)c1 [Compound 80, 2-[3-(2-Benzyloxy-5-methoxy-phenyl)-pyrazol-1-yl]-3-trifluoromethyl-pyridine] was tested. Which pEC50 did it give?
A: Its pEC50 is 5.74.

Q: With COc1ccc(OCc2ccccc2)c(-c2ccnn2-c2ncccc2C(F)(F)F)c1 [Compound 81, 2-[5-(2-Benzyloxy-5-methoxy-phenyl)-pyrazol-1-yl]-3-trifluoromethyl-pyridine] as the molecule, how does the pEC50 read?
A: The pEC50 was 5.21.
